These results are taken from patent US20240228482A1, “COMPOUNDS, COMPOSITIONS AND METHODS OF TREATING CANCER” (HOTSPOT THERAPEUTICS, INC., priority 2021, published 2024).

Where only a bound is given, the exact number is not on record here.

The target in the assay is T1, CBL-B (Homo sapiens, UniProt Q13191).
T1 construct: GST
T1 sequence (Q13191 whole entry): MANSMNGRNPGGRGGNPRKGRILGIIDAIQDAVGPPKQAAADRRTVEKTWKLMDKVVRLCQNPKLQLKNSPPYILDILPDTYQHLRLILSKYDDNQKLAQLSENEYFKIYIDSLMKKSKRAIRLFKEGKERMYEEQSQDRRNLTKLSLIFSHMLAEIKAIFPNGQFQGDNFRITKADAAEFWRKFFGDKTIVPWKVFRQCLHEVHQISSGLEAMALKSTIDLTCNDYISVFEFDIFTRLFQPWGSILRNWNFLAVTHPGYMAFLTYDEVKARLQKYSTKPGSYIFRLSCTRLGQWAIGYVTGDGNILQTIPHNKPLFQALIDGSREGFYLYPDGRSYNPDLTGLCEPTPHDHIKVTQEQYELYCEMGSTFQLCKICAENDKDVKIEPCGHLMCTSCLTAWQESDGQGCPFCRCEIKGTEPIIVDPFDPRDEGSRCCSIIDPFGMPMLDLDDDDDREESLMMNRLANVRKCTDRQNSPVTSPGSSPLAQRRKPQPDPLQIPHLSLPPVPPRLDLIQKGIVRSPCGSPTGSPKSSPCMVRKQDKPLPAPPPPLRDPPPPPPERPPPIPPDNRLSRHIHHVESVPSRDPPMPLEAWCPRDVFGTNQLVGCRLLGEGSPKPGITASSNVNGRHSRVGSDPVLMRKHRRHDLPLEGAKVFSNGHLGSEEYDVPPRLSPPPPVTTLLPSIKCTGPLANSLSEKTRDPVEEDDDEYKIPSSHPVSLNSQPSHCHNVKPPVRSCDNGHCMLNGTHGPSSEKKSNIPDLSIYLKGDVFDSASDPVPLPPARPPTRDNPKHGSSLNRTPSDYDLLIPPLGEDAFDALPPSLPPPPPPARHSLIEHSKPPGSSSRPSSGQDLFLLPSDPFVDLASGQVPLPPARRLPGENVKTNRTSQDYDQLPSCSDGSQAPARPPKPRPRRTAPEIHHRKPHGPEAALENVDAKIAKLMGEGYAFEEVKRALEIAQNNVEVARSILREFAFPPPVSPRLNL
As to the kind of experiment: CBL-B TR-FRET IC50 screening (E1/E2 ubiquitination, Biotin-Ubiquitin, Anti GST-Tb donor / Streptavidin-d2 acceptor). The format is biochemical. The conditions noted are these: second part of Table 2 (head 'Patent Cmpd No / Updated Activity'); same CBL-B TR-FRET IC50 bins A-F; read-out: Updated Activity. For orientation: Time-resolved FRET reads energy transfer from a long-lived donor to a nearby acceptor.
In the case of `CNC(=O)Cc1cc([C@H](c2nncn2C)C2CCC2)cc(-n2cc3c(C(F)(F)F)cccn3c2=O)c1` (single isomer, unassigned) [Compound 538], the IC50 is above 10 µM.

As for `Cn1cnnc1[C@H](c1cc(F)cc(-n2cc3c(C(F)(F)F)cc(CN4CC5(CC5)C4)cn3c2=O)c1)C1CCC1` (single isomer, unassigned) [Compound 539], the IC50 is below 0.1 µM. The value for `Cn1cnnc1[C@H](c1cc(F)cc(-n2cc3c(C(F)(F)F)cc(CN4CCC(C)(F)CC4)cn3c2=O)c1)C1CCC1` (single isomer, unassigned) [Compound 540] was 0.301 to 1 µM. Regarding `CO[C@H]1C[C@@H]([C@@H](c2cccc(-n3cc4c(C(F)(F)F)cc(CN5CCC[C@H](C)C5)cn4c3=O)c2)c2nncn2C)C1` (single isomer, unassigned) [Compound 551], the IC50 lay in the range of 0.301 to 1 µM.

With `CO[C@H]1C[C@H]([C@H](c2cccc(-n3cc4c(C(F)(F)F)cc(CN5CCC[C@H](C)C5)cn4c3=O)c2)c2nncn2C)C1` (single isomer, unassigned) [Compound 552], the IC50 lay within 0.301 to 1 µM.

As for `CO[C@H]1C[C@H]([C@@H](c2cccc(-n3cc4c(C(F)(F)F)cc(CN5CCC[C@H](C)C5)cn4c3=O)c2)c2nncn2C)C1` (single isomer, unassigned) [Compound 553], the IC50 was below 0.1 µM. The value for `CO[C@H]1C[C@@H]([C@H](c2cccc(-n3cc4c(C(F)(F)F)cc(CN5CCC[C@H](C)C5)cn4c3=O)c2)c2nncn2C)C1` (single isomer, unassigned) [Compound 554] was below 0.1 µM; that for `C[C@H]1CCCN(Cc2cc(C(F)(F)F)c3cn(-c4cc(C#N)cc([C@H](c5nncn5C)C5COC5)c4)c(=O)n3c2)C1` (single isomer, unassigned) [Compound 555] was above 10 µM; that for `C[C@H]1CCCN(Cc2cc(C(F)(F)F)c3cn(-c4cc(C#N)cc([C@@H](c5nncn5C)C5COC5)c4)c(=O)n3c2)C1` (single isomer, unassigned) [Compound 556] was below 0.1 µM. On to `Cn1cnnc1[C@@H](c1cc(C#N)cc(-n2cc3c(C(F)(F)F)cc(CN4CC5(CC5)C4)cn3c2=O)c1)C1CCC1` (single isomer, unassigned) [Compound 557], for which the IC50 is above 10 µM.

`CNC(=O)CCc1cc([C@@H](c2nncn2C)C2CCC2)cc(-n2cc3c(C(F)(F)F)cccn3c2=O)c1` (single isomer, unassigned) [Compound 558]: the IC50 is above 10 µM. As for `CNC(=O)CCc1cc([C@H](c2nncn2C)C2CCC2)cc(-n2cc3c(C(F)(F)F)cccn3c2=O)c1` (single isomer, unassigned) [Compound 559], the figure is above 10 µM.

With `Cn1cnnc1[C@H](c1cc(C#N)cc(-n2cc3c(C(F)(F)F)cc(CN4CC5(CC5)C4)cn3c2=O)c1)C1CCC1` (single isomer, unassigned) [Compound 560], the IC50 is below 0.1 µM. As for `Cn1cnnc1[C@@H](c1cccc(-n2cc3c(C(F)(F)F)cc(CN4CCC[C@@](C)(O)C4)cn3c2=O)c1)C1CCC1` (single isomer, unassigned) [Compound 569], the figure is below 0.1 µM; as for `C[C@@H]1CN(Cc2cc(C(F)(F)F)c3cn(-c4cccc([C@H](c5nncn5C)C5CCC5)c4)c(=O)n3c2)CC[C@@H]1O` (single isomer, unassigned) [Compound 570], below 0.1 µM; as for `C[C@H]1CN(Cc2cc(C(F)(F)F)c3cn(-c4cccc([C@H](c5nncn5C)C5CCC5)c4)c(=O)n3c2)CC[C@H]1O` (single isomer, unassigned) [Compound 571], below 0.1 µM.

Take `C[C@H](c1cc(C(F)(F)F)c2cn(-c3cccc([C@H](c4nncn4C)C4CCC4)c3)c(=O)n2c1)N1CC[C@H](C#N)C1` (single isomer, unassigned) [Compound 573_P1]: the IC50 is below 0.1 µM. Regarding `C[C@@H](c1cc(C(F)(F)F)c2cn(-c3cccc([C@H](c4nncn4C)C4CCC4)c3)c(=O)n2c1)N1CC[C@H](C#N)C1` (single isomer, unassigned) [Compound 573_P2], the IC50 was below 0.1 µM.

As to `C[C@H]1CCCN(Cc2cc(C(F)(F)F)c3cn(-c4cccc([C@H](c5nncn5C)[C@H]5C[C@@](C)(O)C5)c4)c(=O)n3c2)C1` (single isomer, unassigned) [Compound 574], the IC50 was above 10 µM. As for `C[C@H]1CCCN(Cc2cc(C(F)(F)F)c3cn(-c4cccc([C@H](c5nncn5C)[C@H]5C[C@](C)(O)C5)c4)c(=O)n3c2)C1` (single isomer, unassigned) [Compound 575], the figure is above 10 µM; as for `C[C@H]1CCCN(Cc2cc(C(F)(F)F)c3cn(-c4cccc([C@@H](c5nncn5C)[C@H]5C[C@](C)(O)C5)c4)c(=O)n3c2)C1` (single isomer, unassigned) [Compound 576], above 10 µM; as for `C[C@H]1CCCN(Cc2cc(C(F)(F)F)c3cn(-c4cccc([C@@H](c5nncn5C)[C@H]5C[C@@](C)(O)C5)c4)c(=O)n3c2)C1` (single isomer, unassigned) [Compound 577], above 10 µM. As for `COC1([C@H](c2cccc(-n3cc4c(C(F)(F)F)cc(CN5CCC[C@H](C)C5)cn4c3=O)c2)c2nncn2C)CCC1` (single isomer, unassigned) [Compound 578], the figure is 1 to 3 µM.

As for `COC1([C@@H](c2cccc(-n3cc4c(C(F)(F)F)cc(CN5CCC[C@H](C)C5)cn4c3=O)c2)c2nncn2C)CCC1` (single isomer, unassigned) [Compound 579], the IC50 was 0.301 to 1 µM. The value for `C[C@H](c1cc(C(F)(F)F)c2cn(-c3cccc([C@H](c4nncn4C)C4CCC4)c3)c(=O)n2c1)N1CCC[C@H](C(F)(F)F)C1` (single isomer, unassigned) [Compound 580] was 3 to 10 µM; that for `Cc1cnnn1[C@H](c1cccc(-n2cc3c(C(F)(F)F)cc(CN4CCC[C@H](C)C4)cn3c2=O)c1)C1CCC1` (single isomer, unassigned) [Compound 582] was above 10 µM. The value for `Cc1cnnn1[C@@H](c1cccc(-n2cc3c(C(F)(F)F)cc(CN4CCC[C@H](C)C4)cn3c2=O)c1)C1CCC1` (single isomer, unassigned) [Compound 583] was 3 to 10 µM; that for `C[C@H]1CCCN(Cc2cc(C(F)(F)F)c3cn(-c4cccc([C@@H](c5nc(CO)cn5C)C5CCC5)c4)c(=O)n3c2)C1` (single isomer, unassigned) [Compound 584] was above 10 µM; that for `C[C@H]1CCCN(Cc2cc(C(F)(F)F)c3cn(-c4cccc([C@H](c5nc(CO)cn5C)C5CCC5)c4)c(=O)n3c2)C1` (single isomer, unassigned) [Compound 585] was above 10 µM. For the compound `C[C@@H]1CN(Cc2cc(C(F)(F)F)c3cn(-c4cccc([C@H](c5nncn5C)C5CCC5)c4)c(=O)n3c2)CC[C@H]1O` (single isomer, unassigned) [Compound 586], the IC50 was below 0.1 µM.

`C[C@H]1C[C@@H](O)CN(Cc2cc(C(F)(F)F)c3cn(-c4cccc([C@H](c5nncn5C)C5CCC5)c4)c(=O)n3c2)C1` (single isomer, unassigned) [Compound 587]: the IC50 was below 0.1 µM. The value for `C[C@H]1CN(Cc2cc(C(F)(F)F)c3cn(-c4cccc([C@H](c5nncn5C)C5CCC5)c4)c(=O)n3c2)CC[C@@H]1O` (single isomer, unassigned) [Compound 588] was below 0.1 µM. The value for `C[C@@H]1C[C@H](O)CN(Cc2cc(C(F)(F)F)c3cn(-c4cccc([C@H](c5nncn5C)C5CCC5)c4)c(=O)n3c2)C1` (single isomer, unassigned) [Compound 589] was below 0.1 µM; that for `C[C@@H]1CC(=O)NN1Cc1cc(C(F)(F)F)c2cn(-c3cccc([C@H](c4nncn4C)C4CCC4)c3)c(=O)n2c1` (single isomer, unassigned) [Compound 598] was below 0.1 µM. The value for `C[C@H]1CC(=O)NN1Cc1cc(C(F)(F)F)c2cn(-c3cccc([C@H](c4nncn4C)C4CCC4)c3)c(=O)n2c1` (single isomer, unassigned) [Compound 599] was below 0.1 µM; that for `CO[C@H]1C[C@@](c2cccc(-n3cc4c(C(F)(F)F)cc([C@@H](C)N5CCC[C@H](C)C5)cn4c3=O)c2)(c2nncn2C)C1` (single isomer, unassigned) [Compound 600] was below 0.1 µM. In the case of `CO[C@H]1C[C@@](c2cccc(-n3cc4c(C(F)(F)F)cc([C@H](C)N5CCC[C@H](C)C5)cn4c3=O)c2)(c2nncn2C)C1` (single isomer, unassigned) [Compound 601], the IC50 is below 0.1 µM.

With `CO[C@H]1C[C@@](c2cccc(-n3cc4c(C(F)(F)F)cc([C@@H](C)N5CCC(F)CC5)cn4c3=O)c2)(c2nncn2C)C1` (single isomer, unassigned) [Compound 602], the IC50 was 0.301 to 1 µM.

Take `CO[C@H]1C[C@@](c2cccc(-n3cc4c(C(F)(F)F)cc([C@H](C)N5CCC(F)CC5)cn4c3=O)c2)(c2nncn2C)C1` (single isomer, unassigned) [Compound 603]: the IC50 was below 0.1 µM. The value for `CO[C@H]1C[C@](c2cccc(-n3cc4c(C(F)(F)F)cc([C@@H](C)N5CCC[C@H](C)C5)cn4c3=O)c2)(c2nncn2C)C1` (single isomer, unassigned) [Compound 604] was below 0.1 µM; that for `CO[C@H]1C[C@](c2cccc(-n3cc4c(C(F)(F)F)cc([C@H](C)N5CCC[C@H](C)C5)cn4c3=O)c2)(c2nncn2C)C1` (single isomer, unassigned) [Compound 605] was below 0.1 µM. As for `CO[C@H]1C[C@](c2cccc(-n3cc4c(C(F)(F)F)cc([C@@H](C)N5CCC(F)CC5)cn4c3=O)c2)(c2nncn2C)C1` (single isomer, unassigned) [Compound 606], the figure is 0.1 to 0.3 µM; as for `CO[C@H]1C[C@](c2cccc(-n3cc4c(C(F)(F)F)cc([C@H](C)N5CCC(F)CC5)cn4c3=O)c2)(c2nncn2C)C1` (single isomer, unassigned) [Compound 607], below 0.1 µM; as for `C[C@H](c1cc(C(F)(F)F)c2cn(-c3cccc([C@H](c4nncn4C)C4CCC4)c3)c(=O)n2c1)N1CCC[C@@H](C(F)(F)F)C1` (single isomer, unassigned) [Compound 613], below 0.1 µM.
